# Results: the supplement of paper PMC10307832
# Key:
# Experiment in all cases: relative viability (nuclei count vs DMSO), 5 days (fraction); higher = more cells survive
# MLN4924 + OSI-027 = compound: NS(=O)(=O)OC[C@@H]1C[C@@H](n2ccc3c(N[C@H]4CCc5ccccc54)ncnc32)C[C@@H]1O [MLN4924] + COc1cccc2cc(-c3nc([C@H]4CC[C@H](C(=O)O)CC4)n4ncnc(N)c34)[nH]c12 [OSI-027] (partner 0.5 µM)
# How it was run: (§1)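 Relative viability is defined as nuclei in treated wells over nuclei in vehicle wells. Duplicate plates were run and medians reported. Lung cancer cell lines in 1536-well plates were dosed by pin tool one day after seeding, with one drug or with a fixed anchor-drug dose plus five library-drug doses (not always all listed) in √10 steps, and nuclei were counted after 5 days.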
# GSK126 + AZD7762 = compound: CC[C@H](C)N1C=C(C2=C(C=C(C=C21)C3=CN=C(C=C3)N4CCNCC4)C(=O)NCC5=C(C=C(NC5=O)C)C)C [GSK126] + NC(=O)Nc1cc(-c2cccc(F)c2)sc1C(=O)N[C@H]1CCCNC1 [AZD7762] (partner 0.2 µM)
# How it was run: as §1
# Carboplatin + OSI-027 = compound: C1CC(C1)(C(=O)O)C(=O)O.[NH2-].[NH2-].[Pt+2] [Carboplatin] + COc1cccc2cc(-c3nc([C@H]4CC[C@H](C(=O)O)CC4)n4ncnc(N)c34)[nH]c12 [OSI-027] (partner 0.5 µM)
# How it was run: as §1
# MLN4924 + Phenformin = compound: NS(=O)(=O)OC[C@@H]1C[C@@H](n2ccc3c(N[C@H]4CCc5ccccc54)ncnc32)C[C@@H]1O [MLN4924] + N=C(N)NC(=N)NCCc1ccccc1 [Phenformin] (partner 250 µM)
# How it was run: as §1
Cell Line,relative viability (MLN4924 + OSI-027; first compound 0.04 µM),relative viability (MLN4924 + OSI-027; first compound 0.1265 µM),relative viability (MLN4924 + OSI-027; first compound 0.4 µM),relative viability (MLN4924 + OSI-027; first compound 1.265 µM),relative viability (MLN4924 + OSI-027; first compound 4 µM),relative viability (GSK126 + AZD7762; first compound 0.08 µM),relative viability (GSK126 + AZD7762; first compound 0.253 µM),relative viability (GSK126 + AZD7762; first compound 0.8 µM),relative viability (GSK126 + AZD7762; first compound 2.53 µM),relative viability (GSK126 + AZD7762; first compound 8 µM),relative viability (Carboplatin + OSI-027; first compound 0.08 µM),relative viability (Carboplatin + OSI-027; first compound 0.253 µM),relative viability (Carboplatin + OSI-027; first compound 0.8 µM),relative viability (Carboplatin + OSI-027; first compound 2.53 µM),relative viability (Carboplatin + OSI-027; first compound 8 µM),relative viability (MLN4924 + Phenformin; first compound 0.04 µM),relative viability (MLN4924 + Phenformin; first compound 0.1265 µM),relative viability (MLN4924 + Phenformin; first compound 0.4 µM),relative viability (MLN4924 + Phenformin; first compound 1.265 µM),relative viability (MLN4924 + Phenformin; first compound 4 µM)
NCI-H1944,0.502,0.453,0.313,0.161,0.185,0.476,0.46,0.441,0.547,0.461,0.539,0.407,0.41,0.382,0.317,0.22,0.187,0.173,0.112,0.122
NCI-H1755,0.681,0.518,0.4,0.207,0.208,0.468,0.446,0.395,0.461,0.412,0.823,0.786,0.712,0.729,0.74,0.605,0.534,0.332,0.228,0.23
A-427,0.356,0.239,0.214,0.173,0.171,0.82,0.703,0.667,0.825,0.542,0.449,0.531,0.479,0.499,0.39,0.193,0.165,0.171,0.146,0.151
PC-14,1.03,0.787,0.378,0.0583,0.065,0.335,0.314,0.35,0.417,0.312,0.864,0.923,0.716,0.369,0.133,0.473,0.564,0.37,0.151,0.127
LOU-NH91,0.754,0.857,0.609,0.411,0.385,0.789,0.737,0.714,0.822,0.727,0.811,0.72,0.75,0.761,0.73,0.6,0.853,0.763,0.467,0.425
BEN,0.318,0.308,0.228,0.218,0.195,0.718,0.605,0.785,0.744,0.612,0.295,0.304,0.266,0.287,0.292,0.214,0.185,0.218,0.183,0.145
NCI-H2085,0.852,0.746,0.635,0.512,0.307,1.03,0.973,0.927,0.907,0.957,0.719,0.849,0.783,0.64,0.628,0.754,0.676,0.598,0.443,0.348
LCLC-103H,0.467,0.491,0.539,0.178,0.156,0.847,0.86,0.786,0.778,0.843,0.456,0.544,0.5,0.468,0.482,0.358,0.368,0.347,0.157,0.143
ABC-1,0.7,0.511,0.323,0.196,0.248,0.587,1.04,0.95,0.886,0.916,0.551,0.509,0.547,0.335,0.299,0.274,0.298,0.229,0.212,0.222
NCI-H1792,0.663,0.765,0.839,0.593,0.54,0.68,0.712,0.537,0.58,0.567,0.724,0.691,0.824,0.679,0.566,0.403,0.324,0.725,0.258,0.217
H3255,0.578,0.472,0.373,0.256,0.291,1.08,0.887,0.938,1.05,0.788,0.591,0.513,0.529,0.519,0.488,0.374,0.331,0.265,0.264,0.325
EMC-BAC-2,0.383,0.36,0.197,0.194,0.243,1.05,1.1,1.1,1.09,1.04,0.423,0.372,0.364,0.374,0.375,0.37,0.424,0.296,0.193,0.218
NCI-H1666,0.862,0.892,0.711,0.351,0.325,0.861,0.8,0.82,0.936,0.813,0.831,0.818,0.831,0.644,0.566,0.509,0.453,0.449,0.265,0.337
HCC-366,1.02,0.895,1.08,0.396,0.0921,0.33,0.251,0.201,0.293,0.177,1.07,0.979,0.911,0.955,0.486,0.612,0.634,0.454,0.11,0.0866
LCLC-97TM1,0.601,0.247,0.239,0.131,0.116,0.307,0.312,0.228,0.267,0.24,0.481,0.615,0.594,0.554,0.474,0.417,0.314,0.288,0.108,0.137
NCI-H2405,0.749,0.684,0.493,0.309,0.271,0.794,0.603,0.695,0.715,0.611,0.683,0.624,0.624,0.642,0.56,0.403,0.446,0.362,0.284,0.306

Cell Line,relative viability (MLN4924 + OSI-027; first compound 0.04 µM),relative viability (MLN4924 + OSI-027; first compound 0.1265 µM),relative viability (MLN4924 + OSI-027; first compound 0.4 µM),relative viability (MLN4924 + OSI-027; first compound 1.265 µM),relative viability (MLN4924 + OSI-027; first compound 4 µM),relative viability (GSK126 + AZD7762; first compound 0.08 µM),relative viability (GSK126 + AZD7762; first compound 0.253 µM),relative viability (GSK126 + AZD7762; first compound 0.8 µM),relative viability (GSK126 + AZD7762; first compound 2.53 µM),relative viability (GSK126 + AZD7762; first compound 8 µM),relative viability (Carboplatin + OSI-027; first compound 0.08 µM),relative viability (Carboplatin + OSI-027; first compound 0.253 µM),relative viability (Carboplatin + OSI-027; first compound 0.8 µM),relative viability (Carboplatin + OSI-027; first compound 2.53 µM),relative viability (Carboplatin + OSI-027; first compound 8 µM),relative viability (MLN4924 + Phenformin; first compound 0.04 µM),relative viability (MLN4924 + Phenformin; first compound 0.1265 µM),relative viability (MLN4924 + Phenformin; first compound 0.4 µM),relative viability (MLN4924 + Phenformin; first compound 1.265 µM),relative viability (MLN4924 + Phenformin; first compound 4 µM)
NCI-H1915,0.567,0.544,0.452,0.213,0.205,0.762,0.739,0.663,0.755,0.676,0.616,0.576,0.673,0.601,0.408,0.347,0.33,0.291,0.179,0.211
NCI-H650,0.344,0.415,0.235,0.162,0.187,0.946,1.11,0.964,1.01,1.16,0.526,0.514,0.601,0.539,0.356,0.355,0.287,0.224,0.197,0.199
NCI-H596,0.669,0.87,,0.765,0.596,1.12,0.904,1.2,1.12,0.988,0.909,0.803,0.781,0.654,0.514,0.751,0.914,,0.835,0.763
HCC-44,0.423,0.263,0.171,0.216,0.233,1.04,1.12,0.99,0.983,1.01,0.53,0.572,0.5,0.484,0.292,0.144,0.172,0.0837,0.0692,0.102
NCI-H2087,0.41,0.498,0.516,0.14,0.104,1.52,1.31,1.18,1.41,1.43,0.656,0.56,0.536,0.508,0.41,0.442,0.349,0.298,0.0782,0.0942
NCI-H522,0.666,0.64,0.398,0.317,0.465,0.849,0.888,0.904,0.93,0.964,0.741,0.711,0.567,0.685,0.7,0.642,0.676,0.454,0.424,0.293
RERF-LC-KJ,0.576,0.52,0.217,0.175,0.224,,1.09,0.959,1.1,1.03,0.585,0.639,0.541,0.464,0.343,0.397,0.351,0.204,0.255,0.249
NCI-H2126,0.665,0.75,0.59,0.407,0.346,1.13,0.988,0.974,0.945,1.06,0.812,0.654,0.677,0.635,0.595,0.566,0.566,0.432,0.321,0.304
HARA,0.465,0.361,0.271,0.0502,0.0686,0.379,0.397,0.4,0.266,0.203,0.619,0.644,0.476,0.462,0.385,0.35,0.355,0.177,0.0555,0.0476
EPLC-272H,0.291,0.265,0.0696,0.13,0.136,0.272,0.296,0.209,0.262,0.112,0.299,0.287,0.291,0.259,0.247,0.343,0.325,0.0478,0.103,0.126
NCI-H727,0.521,0.47,0.559,0.389,0.441,0.683,0.619,0.539,0.64,0.458,0.732,0.547,0.555,0.617,0.551,0.827,0.438,0.278,0.292,0.33
NCI-H2170,0.694,0.601,0.27,0.178,0.255,0.951,0.966,0.823,0.86,0.815,0.715,0.723,0.86,0.783,0.605,0.359,0.305,0.214,0.183,0.185
EKVX,0.71,0.712,0.622,0.214,0.175,0.648,0.747,0.753,0.787,0.672,0.739,0.736,,0.674,0.683,0.228,0.221,0.239,0.175,0.138
NCI-H1437,0.845,0.914,0.828,0.305,0.174,1.19,1.06,1.05,1.1,0.966,0.935,0.822,0.83,0.749,0.488,0.325,0.337,0.388,0.258,0.195
PC-3 [JPC-3],0.829,0.744,0.659,0.283,0.237,0.855,0.855,0.957,0.871,0.766,0.88,0.821,0.754,0.729,0.588,0.482,0.482,0.404,0.323,0.341
LK-2,0.214,0.214,0.191,0.202,0.17,0.402,0.364,0.401,0.623,0.293,0.262,0.191,0.21,0.184,0.226,0.312,0.31,0.262,0.167,0.173
